Assay [1] concerns tyrosinase. As to the kind of experiment: Inhibitory effect on tyrosinase activity. It counts as biochemical. As for the experimental part:
A tyrosinase used herein was purchased from Sigma (U.S.A.). Tyrosine as substrate was used as a solution (0.1 mg/ml) dissolved in 0.05 M sodium phosphate buffer (pH 6.8).
0.5 ml of tyrosine solution was placed in a test tube and 0.5 ml of sample solution to be evaluated was added. The test tube was allowed to stand in incubator for 10 min. at 37° C. and then 0.5 ml of tyrosinase (200 U/ml) was added. The reaction was carried out for 10 min at 37° C. As a control group, 0.5 ml of buffer solution was added instead of the sample to be evaluated. The reaction was quenched by placing the test tube on ice and the absorbance of the resultant was measured at 475 nm with spectrophotometer. The inhibitory effect on tyrosinase activity was determined by the equation: inhibition rate on tyrosinase activity (%)=100−{(absorbance of sample/absorbance of control)×100}

The test system of assay [2] is Human normal fibroblasts. As to the kind of experiment: Effect on collagen biosynthesis (procollagen type C-peptide kit). As to conditions: 48 hours treatment. The assay is classed as cell-based. How it is done:
Human normal fibroblasts (ATCC) were inoculated (2×10^4 cells/well) on 96-well microplate containing DMEM supplemented with FBS and incubated for 24 hours at 37° C. After incubation, the medium in microplate was replaced with fresh DMEM without serum comprising the derivative of this invention, retinol or ascorbic acid and then additional incubation for 48 hours was carried out. Control was not treated with any of the compounds described above. Following incubation, each well was rinsed, fresh DMEM without serum was supplied and then additional incubation for 24 hours was performed. Then, procollagen type C-peptide obtained from the supernatant of each well was measured using a kit purchased from Takara Co. (Japan) and the measured values were converted to ng/2×10^4 cells, which indicate the amount of collagen newly generated.

Assay [3] is described as follows: Scavenging effect on free radical (DPPH). The settings on record: 30 min, absorbance 520 nm. As for the experimental part: Evaluation of scavenging effect on free radical was performed using DPPH (1,1-diphenyl-2-picryl-hydrazyl, Sigma-Aldrich). 100 μl of each of the substances (the derivative of this invention, retinol and ascorbic acid) diluted to a suitable concentration and 100 μl of 400 μM DPPH solution were consequently added to a 96-well microplate and agitation was performed, followed by reaction for 30 min. at room temperature. Then, absorbance at 520 nm was measured using spectrophotometer. Control contains 100 μl of ethanol in place of the substance to be tested. The scavenging effect on free radical was calculated as following formula: scavenging effect on free radical (%)=100−{(absorbance of sample solution/absorbance of control)×100}

With `CC1=C(/C=C/C(C)=C/C=C/C(C)=C/COC(=O)COC2=C(O)C(=O)OC2C(O)CO)C(C)(C)CCC1` (stereo not drawn) [Derivative of this invention], the “Inhibition rate on tyrosinase activity (%)” value (“Inhibition rate … (%)” below) in assay [1] (sample conc. 10 μg/ml) was found to be 8.1%; in assay [1] (sample conc. 20 μg/ml), 10.7%; in assay [1] (sample conc. 50 μg/ml), 13.8%; in assay [1] (sample conc. 100 μg/ml) it was 32.9%; in assay [1] (sample conc. 200 μg/ml), 47.1%; in assay [1] (sample conc. 500 μg/ml), 78.8%. In addition, the “Amount of Collagen Newly Generated” value worked out at 215 ng/2 × 10^4 cells in assay [2] (addition amount 50 μg), 290 ng/2 × 10^4 cells in assay [2] (addition amount 100 μg) and 349 ng/2 × 10^4 cells in assay [2] (addition amount 200 μg). The entries for the “Scavenging effect on free radical (%)” value in assay [3] (concentration 0.5 mM) and in assay [3] (concentration 1 mM) were 95.7% and 96.4%, respectively.

Turning to `O=C1O[C@H]([C@@H](O)CO)C(O)=C1O` [L-ascorbic acid], the “Inhibition rate … (%)” value in assay [1] (sample conc. 10 μg/ml) was found to be 5.1%; in assay [1] (sample conc. 20 μg/ml) it was 9.8%; in assay [1] (sample conc. 50 μg/ml), 13.2%; in assay [1] (sample conc. 100 μg/ml), 22.5%; in assay [1] (sample conc. 200 μg/ml) it was 34.8%; in assay [1] (sample conc. 500 μg/ml) it was 62.4%. Besides, the “Amount of Collagen Newly Generated” value was 198 ng/2 × 10^4 cells in assay [2] (addition amount 50 μg), 267 ng/2 × 10^4 cells in assay [2] (addition amount 100 μg) and 314 ng/2 × 10^4 cells in assay [2] (addition amount 200 μg). For the same molecule, the “Scavenging effect on free radical (%)” value in assay [3] (concentration 0.5 mM) turned out to be 91.2%; in assay [3] (concentration 1 mM) it was 91.9%.

In the case of `CC1=C(/C=C/C(C)=C/C=C/C(C)=C/CO)C(C)(C)CCC1` [Retinol], the “Inhibition rate … (%)” value in assay [1] (sample conc. 10 μg/ml) amounted to 0.6%; in assay [1] (sample conc. 20 μg/ml), 1.1%; in assay [1] (sample conc. 50 μg/ml), 3.2%; in assay [1] (sample conc. 100 μg/ml) it was 3.9%; in assay [1] (sample conc. 200 μg/ml), 5.6%; in assay [1] (sample conc. 500 μg/ml) it was 9.2%. The figures for the “Amount of Collagen Newly Generated” value in assay [2] (addition amount 50 μg), in assay [2] (addition amount 100 μg) and in assay [2] (addition amount 200 μg) were 174 ng/2 × 10^4 cells, 233 ng/2 × 10^4 cells and 286 ng/2 × 10^4 cells, respectively. The “Scavenging effect on free radical (%)” value came to 0.4% in assay [3] (concentration 0.5 mM) and 1.6% in assay [3] (concentration 1 mM).

Values taken from patent publication US7253212B2, “Retinol derivative and cosmetic composition comprising the same” (Coreana Cosmetics Co., Ltd., priority 2002, dated 2007).
